Assay results as given in patent US20240228474A1, “ANTIBACTERIAL COMPOUND” (DISCUVA LIMITED, priority 2021, published 2024).
Values after ≈ are worked out from the molar mass of the structure shown.

Tests used:
[1] = system: Proteus mirabilis (DSM 4479); assay: MIC by broth microdilution (CLSI); format: cell-based; conditions: DSM4479
Method: (§1) Minimum Inhibitory Concentrations (MICs) versus Escherichia coli (NCTC 13441) and Klebsiella pneumoniae (NCTC 13438) (planktonic bacteria) were determined by the broth microdilution procedure in line with the guidelines of the Clinical and Laboratory Standards Institute (Clinical and Laboratory Standards Institute. Methods for Dilution Antimicrobial Susceptibility Tests for Bacteria That Grow Aerobically, Approved Standard-Eleventh Edition, CLSI document M07, 11 Jan. 2018). The broth dilution method involved a two-fold serial dilution of compounds in 96-well microtitre plates, giving a final concentration range of 0.39-200 μM and a maximum final concentration of 2% DMSO. The bacterial strains tested were Escherichia coli (NCTC 13441) and Klebsiella pneumoniae (NCTC 13438). Strains were grown in cation-adjusted Müller-Hinton broth or on Luria Bertani agar at 37° C. in an ambient atmosphere. The MIC (μM) was determined as the lowest concentration of compound that inhibits growth following a 20-24 hour incubation period.
Minimum Inhibitory Concentrations (MICs) versus Proteus mirabilis (DSM 4479) were determined for compound (I) and comparative compounds (II) and (III) using the methodology outlined above.

[2] = Permeability; format: in vitro ADME
[3] = Lipophilicity, Log P measured with SiriusT3 (octanol titration); format: physicochemical; conditions: octanol / aqueous sample solution
Method: Log P values of compound (I) and comparative compound (III) were measured using the SiriusT3 instrument from Sirius Analytical by performing an acid-based titration and measuring the shift in pKa when the sample solution is in contact with an immiscible solvent (octanol). Log P for the comparative compound (II) was calculated using Marvin (physico-chemical calculation software). The lipophilicity data for compound (I) and comparative compounds (II) and (III) was collected in separate experiments carried out on different days, and compared in Table 5.

[4] = system: E. coli UT189; assay: Murine urinary tract infection proof-of-concept study, IV bolus; format: in vivo
Method: Compound (I) and comparative compound (III) were evaluated in proof-of-concept studies in murine models for the treatment of a respiratory infection with Gram-negative bacteria of the order Enterobacterales, a bacteraemia or bloodstream infection with Gram-negative bacteria of the order Enterobacterales, and a urinary tract infection with Gram-negative bacteria of the order Enterobacterales. Each dot, triangle or square indicator represents a single mouse. LOD refers to the limit of detection of the bacteria. […] Each of the proof-of-concept studies was carried out separately. By vehicle is meant pharmaceutically acceptable carrier or excipient. For the proof-of-concept study for the treatment of a urinary tract infection with Enterobacterales, female C3H/HeN mice were infected with E. coli UT189. Twenty-four hours after infection (‘pre-treatment’ in FIGS. 4a-c), a vehicle (20% hydroxypropyl β cyclodextrin) containing no compound (I) or comparative compound (III), or a vehicle (20% hydroxypropyl β cyclodextrin) containing compound (I) or comparative compound (III), was administered by IV bolus of 20 mg/kg, TID (8 hrs apart), over 3 days.

[5] = system: E. coli BAA-2469 (NDM-1 positive); assay: Murine bacteraemia / bloodstream infection proof-of-concept study, IV bolus; format: in vivo
Method: Compound (I) and comparative compound (III) were evaluated in proof-of-concept studies in murine models for the treatment of a respiratory infection with Gram-negative bacteria of the order Enterobacterales, a bacteraemia or bloodstream infection with Gram-negative bacteria of the order Enterobacterales, and a urinary tract infection with Gram-negative bacteria of the order Enterobacterales. Each dot, triangle or square indicator represents a single mouse. LOD refers to the limit of detection of the bacteria. […] Each of the proof-of-concept studies was carried out separately. By vehicle is meant pharmaceutically acceptable carrier or excipient.
For the proof-of-concept study for the treatment of a bacteraemia or bloodstream infection with Gram-negative bacteria of the order Enterobacterales, CD-1 mice were infected with human urine isolate E. coli BAA-2469 (NDM-1 positive). One hour after infection (‘pre-treatment’ in FIG. 3), a vehicle (20% hydroxypropyl β cyclodextrin) containing no compound (I) or comparative compound (III), or a vehicle (20% hydroxypropyl β cyclodextrin) containing compound (I) or comparative compound (III), was administered by as a single dose IV bolus at 20 mg/kg.

[6] = system: Proteus spp. (10 isolates); assay: MIC by broth microdilution (EUCAST), 10 isolates; format: cell-based
Method: (§2) Minimum Inhibitory Concentration (MIC90) versus 100 isolates of Escherichia coli and Klebsiella pneumonia were determined. The Minimum Inhibitory Concentration at which 90% of the isolates (strains) are inhibited (MIC90) were measured by broth microdilution in line with EUCAST susceptibility testing standards (www.eucast.org). Bacterial inocula were prepared at ca 1×10^6 CFU/mL by diluting 100-fold a 0.5 McFarland suspension. Antibacterial panels containing 50 μl of antibacterial solutions at 2× the final concentrations were diluted 2-fold with 50 μl of inoculum to give a final inoculum of ca 5×10^5 CFU/ml and desired test concentrations of antibacterial agents (0.03-64 μg/mL). The plates were incubated according to the guidelines of the Clinical and Laboratory Standards Institute (Clinical and Laboratory Standards Institute. Methods for Dilution Antimicrobial Susceptibility Tests for Bacteria That Grow Aerobically; Approved Standard-Eleventh Edition, CLSI document […], 11 Jan. 2018). The MIC90 (μg/ml) is the MIC value at which greater than or equal to 90% of the isolates (strains) within a test population are inhibited. Minimum Inhibitory Concentrations (MICs) versus Proteus spp. and Providencia spp. were determined for compound (I) and comparative compound (III) using the methodology outlined above for the 100 isolates of Escherichia coli and Klebsiella pneumonia.

[7] = system: Providencia spp. (10 isolates); assay: MIC by broth microdilution (EUCAST), 10 isolates; format: cell-based
Method: as §2

[8] = system: Escherichia coli (NCTC 13441); assay: MIC by broth microdilution (CLSI); format: cell-based; conditions: NCTC13441, planktonic bacteria, 20-24 hour incubation
Method: as §1

[9] = system: Klebsiella pneumoniae (NCTC 13438); assay: MIC by broth microdilution (CLSI); format: cell-based; conditions: NCTC13438, planktonic bacteria, 20-24 hour incubation
Method: as §1

[10] = IV bolus 20 mg/kg TID over 3 days, 96 h after initial infection
[11] = difference in log reduction, 96 h

MIC [1]: 25 µM (≈ 9.81 µg/mL)
permeability [2]: good permeability
logP [3]: 1.6
MIC Range [6]: 8 to 32 mg/L
MIC Range [7]: 0.5 to 16 mg/L
MIC [8]: ≤ 0.39 µM
MIC [9]: 1.56 to 3.13 µM (≈ 0.612 to 1.23 µg/mL)
Structure (SMILES): Cc1cnccc1-c1[nH]c(N)nc1-c1ccc2c(c1)N(C(=O)C(C)(C)N)CCO2 [Compound (I), 2-amino-1-(6-(2-amino-5-(3-methylpyridin-4-yl)-1H-imidazol-4-yl)-2,3-dihydro-4H-benzo[b][1,4]oxazin-4-yl)-2-methylpropan-1-one]
bacterial burden in the urine at end of study ([4]; IV bolus 20 mg/kg TID over 3 days, 96 h): below the limit of detection (LOD)
reduction of bacterial burden in the bladder compared to vehicle [4, 10]: 5.67 log
reduction of bacterial burden in the kidney compared to vehicle [4, 10]: 4.73 log
more efficacious than comparative compound (III), bladder [4, 11]: 3 log
more efficacious than comparative compound (III), urine [4, 11]: 3 log
reduction of bacterial burden in the urine compared to vehicle ([4]; female C3H/HeN mice, IV bolus 20 mg/kg TID over 3 days, 96 h after initial infection): 6.59 log
reduction of bacterial burden in the blood compared to vehicle ([5]; CD-1 mice, single dose IV bolus 20 mg/kg, 9 h from initial infection): 7.43 log
more efficacious than comparative compound (III), blood ([5]; difference in log reduction, 9 h): 2.5 log
bacterial burden (CFU) in the blood at end of study ([5]; single dose IV bolus 20 mg/kg, 9 h from initial infection): below the limit of detection (LOD)
